In brackets after ≈: the same amount, converted by molar mass.
What was measured:
[1] = tested on: red blood cells (mechanically defibrinated sheep blood); assay: Hemolysis assay (cell lysis); format: cell-based; set-up: red blood cell lysis: unit not given here; conditions: 1 hour, 37° C.
Protocol: The effects of the compounds described herein to lyse cells was evaluated in this example. Hemolysis assays were performed on mechanically defibrinated sheep blood (Hemostat Labs: DSB030). 1.5 mL of blood was placed into a microcentrifuge tube and centrifuged at 10,000 rpm for ten minutes. The supernatant was removed and then the cells were resuspended with 1 mL of phosphate-buffered saline (PBS). The suspension was centrifuged as previously, the supernatant was removed, and cells were resuspended two more times. The final cell suspension was diluted twentyfold with PBS. The twentyfold suspension dilution was then aliquoted into microcentrifuge tubes containing compound serially diluted in PBS. TritonX (1% by volume) served as a positive control (100% lysis marker) and sterile PBS served as a negative control (0% lysis marker). Samples were then placed in an incubator at 37° C. and shaken at 200 rpm. After 1 hour, the samples were centrifuged at 10,000 rpm for ten minutes. The absorbance of the supernatant was measured with a UV spectrometer at a 540 nm wavelength. See, e.g., Peng, Chem. Comm. 2011, 47, 4896-4898.

[2] = tested on: Streptococcus gordonii strain DL1; assay: MIC assay, S. gordonii; format: cell-based; conditions: 5% CO2, 37° C., 20-24 hours
Excerpt: (§1) Streptococcus mutans wild-type strain UA159 was provided by Dr. Bettina Buttaro from Temple University Medical School, Philadelphia, Pa. Streptococcus gordonii strain DL1 and Streptococcus sanguinis strain 10904 were provided by Dr. Robert G. Quivey from University of Rochester Medical School. Streptococcus gordonii strain DL1 may be obtained from the American Type Culture Collection under accession #49818. Streptococcus sanguinis strain 10904 may be obtained from the National Collection of Type Cultures under accession #10904. Bacteria were routinely maintained on in Bacto™ Todd-Hewitt (TH) agar plates and liquid cultures were grown in Bacto™ Todd-Hewitt broth (THB). For growth of biofilms, THB was supplemented with 0.1% sucrose. Incubation was stagnant at 37° C. Bacterial strains Methicillin-Resistant Staphylococcus aureus HPV107, Staphylococcus epidermidis Fussel [NCTC 11047, R. Hugh 2466], Streptococcus sobrinus SL1 [CCM 6070, CNCTC 9/89], Enterococcus faecalis NCTC 775 [DSM 20478, JCM 8726, NCDO 581, Tissier], Pseudomonas aeruginosa [CCEB 481, MDB strain BU 277, NCIB 8295, NCPPB 1965, NCTC 10332, NRRL B-771, R. Hugh 815], Serratia marcescens BS 303 [CDC 813-60, NCIB 9155, NCTC 10211], and Acinetobacter baumannii 2208 [81, DSM 6974] were purchased from the American Type Culture Collection.
(§2) Stock solutions of compounds (10 mM) were serial diluted (200 μL, 100 μL, 50 μL, 10 μL, and 2 μL) in THB media in flat-bottom 96-well microtiter plates (total volume 100 μL). Bacterial cultures were grown in brain heart infusion or nutrient broth media to mid-exponential phase, back diluted to an OD of 0.1 and then inoculated into the 96-well plate to reach a final volume of 200 μL. Plates were inoculated at 37° C. in 5% CO2 for 20-24 hours upon which time wells were evaluated visually for bacterial growth and/or the wells' OD630 was evaluated via spectrophotometer. […] DMSO controls corresponding to each test concentration were performed. Biological triplicates were performed to confirm results.

[3] = tested on: Streptococcus sanguinis strain 10904; assay: MIC assay, S. sanguinis; format: cell-based; conditions: 5% CO2, 37° C., 20-24 hours
Excerpt: as §1, §2

[4] = tested on: Streptococcus mutans wild-type strain UA159; assay: MIC assay, S. mutans; format: cell-based; conditions: planktonic, 5% CO2, 37° C., 20-24 hours
Excerpt: as §1, §2

S. mutans = S. mutans MBC assay; format: cell-based, Streptococcus mutans; conditions: for MBC: Streptococcus mutans, 3-log reduction in CFU count (99.9% bacterial death); for bacteriostatic or bactericidal properties (regrow analysis, MIC vs MBC): S. mutans
Protocol: MIC assay was performed (above) and each well diluted (log-dilution) into a new 96-well microtiter plate. Five μL from each dilution was then plated on THB agar plates and incubated for 24 hours. Colony counts were performed to determine MBC which is defined as the concentration which there is a 3-log reduction in CFU count which corresponds to 99.9% bacterial death.

[5] = Concentration 500 μM, TritonX 100% lysis, PBS 0% lysis

Row | Structure (SMILES) | MIC [2] | MIC [3] | MIC [4] | further results
1 | COc1cc(CCc2ccc(C(C)(C)C)c(O)c2)ccc1C(C)(C)C [Compound 1H-2, (tert-butyl)-5-(4-(tert-butyl)-3-methoxyphenethyl)phenol] |  |  |  | red blood cell lysis ([1]; Concentration 0.25 μM): 0.13; red blood cell lysis ([1]; Concentration 0.5 μM): −0.02; red blood cell lysis ([1]; Concentration 1 μM): −0.02; red blood cell lysis ([1]; Concentration 2 μM): −0.03; red blood cell lysis ([1]; Concentration 4 μM): 0.16; red blood cell lysis ([1]; Concentration 8 μM): −0.03; red blood cell lysis ([1]; Concentration 16 μM): −0.03; red blood cell lysis ([1]; Concentration 32 μM): −0.02; red blood cell lysis ([1]; Concentration 63 μM): 0.02; red blood cell lysis ([1]; Concentration 125 μM): 0.12; red blood cell lysis ([1]; Concentration 250 μM): 0.21; red blood cell lysis [1, 5]: 0.33
2 | CC(C)(C)c1ccc(CCc2cccc(O)c2)cc1O [Compound 1H-3, 2-(tert-butyl)-5-(3-hydroxyphenethyl)phenol] |  |  |  | red blood cell lysis ([1]; Concentration 0.25 μM): 0.11; red blood cell lysis ([1]; Concentration 0.5 μM): 0.00; red blood cell lysis ([1]; Concentration 1 μM): −0.03; red blood cell lysis ([1]; Concentration 2 μM): −0.03; red blood cell lysis ([1]; Concentration 4 μM): −0.03; red blood cell lysis ([1]; Concentration 8 μM): 0.29; red blood cell lysis ([1]; Concentration 16 μM): −0.03; red blood cell lysis ([1]; Concentration 32 μM): −0.03; red blood cell lysis ([1]; Concentration 63 μM): 0.00; red blood cell lysis ([1]; Concentration 125 μM): 0.46; red blood cell lysis ([1]; Concentration 250 μM): 0.69; red blood cell lysis [1, 5]: 0.81
3 | COc1cccc(CCc2ccccc2O)c1 [Compound 6] |  |  |  | red blood cell lysis ([1]; Concentration 0.25 μM): 0.03; red blood cell lysis ([1]; Concentration 0.5 μM): −0.02; red blood cell lysis ([1]; Concentration 1 μM): −0.03; red blood cell lysis ([1]; Concentration 2 μM): −0.03; red blood cell lysis ([1]; Concentration 4 μM): 0.35; red blood cell lysis ([1]; Concentration 8 μM): −0.03; red blood cell lysis ([1]; Concentration 16 μM): −0.03; red blood cell lysis ([1]; Concentration 32 μM): −0.02; red blood cell lysis ([1]; Concentration 63 μM): 0.07; red blood cell lysis ([1]; Concentration 125 μM): −0.02; red blood cell lysis ([1]; Concentration 250 μM): 0.02; red blood cell lysis [1, 5]: 0.27
4 | Cc1cc(O)c(C)c(O)c1-c1cc(C(C)(C)C)c(O)c(C(C)(C)C)c1 [Compound A2, 3′,5′-Di-tert-3,6-methyl-[1,1′-biphenyl]-2,4,4′-triol] | 32 µM (≈ 11 µg/mL) | 32 µM (≈ 11 µg/mL) | 32 µM (≈ 11 µg/mL) | MBC (S. mutans): 63 µM (≈ 21.6 µg/mL)
5 | Cc1cc(-c2cc(C)c(O)c(C)c2)cc(C)c1O [Compound A3] | > 250 µM | > 250 µM | > 250 µM | 
6 | CCCc1c(C)cc(C)c(-c2c(C)cc(C)c(CCC)c2O)c1O [Compound A4, 4,4’,6,6′-Tetramethyl-3,3′-dipropyl-[1,1′-diphenyl]2,2′-diol] | > 250 µM | > 250 µM | > 250 µM | 
7 | C=CCc1c(C)cc(C)c(-c2c(C)cc(C)c(CC=C)c2O)c1O [Compound A5, 3,3′Diallyl-4,4′,6,6′-tetramethyl-[1,1′-biphenyl]-2,2′-diol] | > 250 µM | > 250 µM | > 250 µM | 
8 | C=CCc1cc(-c2c(O)cc(C)c(C)c2C)cc(C(C)(C)C)c1O [Compound A6, 3′-Allyl-5′-(tert-butyl)-4,5,6-trimethyl-[1,1′-biphenyl]2,4′-diol] | > 250 µM | > 250 µM | > 250 µM | 
9 | Cc1cc(-c2cc(C)c(O)c(C(C)(C)C)c2)c(C(C)C)cc1O [Compound A7] | 16 µM (≈ 5 µg/mL) | 32 µM (≈ 10 µg/mL) | 32 µM (≈ 10 µg/mL) | MBC (S. mutans): 32 µM (≈ 10 µg/mL)
10 | C=CCc1cc(-c2cc(C)ccc2O)cc(C(C)(C)C)c1O [Compound A8, 3′-Allyl-5′-(tert-butyl)-5-methyl-[1,1′-biphenyl]2,4′-diol] | 125 µM (≈ 37.1 µg/mL) | 125 µM (≈ 37.1 µg/mL) | > 250 µM | 
11 | Cc1cc(O)c(-c2cc(C(C)C)c(O)c(C(C)C)c2)c(C)c1C [Compound A9, 3′,5′-Diisopropyl-4,5,6-trimethyl-[1,1′-biphenyl]-2,4′-diol] | > 250 µM | > 250 µM | > 250 µM | 
12 | C=CCc1cc(-c2cc(C)c(O)cc2C(C)C)cc(CC=C)c1O [Compound A10, 3′,5′-Diallyl-2-isopropyl-5-methyl-[1,1′-biphenyl]-4,4′-diol] | 250 µM (≈ 80.6 µg/mL) | 250 µM (≈ 80.6 µg/mL) | > 250 µM | 
13 | Cc1c(O)c(-c2cc(C(C)(C)C)c(O)c(C(C)(C)C)c2)c(C)c(-c2cc(C(C)(C)C)c(O)c(C(C)(C)C)c2)c1O [Compound A11, 3,3″,5,5″-Tetra-tert-butyl-2′,5′-dimethyl-[1,1′:3′,1″-terphenyl]-4,4′,4″,6′-tetraol] | > 250 µM | > 250 µM | > 250 µM | 

Second part, led by results:

Row | MIC [2] | MIC [3] | MIC [4] | Structure (SMILES) | further results
14 | > 250 µM | > 250 µM | > 250 µM | Cc1cc(-c2c(O)ccc3ccccc23)cc(C)c1O [Compound B1, 1-(4-Hydroxy-3,5-dimethylphenyl)naphthalene-2-ol] | 
15 | > 250 µM | > 250 µM | > 250 µM | COc1cc(-c2c(O)ccc3ccccc23)cc(OC)c1O [Compound B2, 1-(4-Hydroxy-3,5-dimethoxyphenyl)naphthalen-2-ol] | 
16 | 63 µM (≈ 22 µg/mL) | 63 µM (≈ 22 µg/mL) | 63 µM (≈ 22 µg/mL) | CC(C)(C)c1cc(-c2c(O)ccc3ccccc23)cc(C(C)(C)C)c1O [Compound B3] | 
17 | 125 µM (≈ 45.6 µg/mL) | 125 µM (≈ 45.6 µg/mL) | 125 µM (≈ 45.6 µg/mL) | CC(C)(C)c1cc(-c2c(O)ccc3ccc(O)cc23)cc(C(C)(C)C)c1O [Compound B4, 1-(3,5-Di-tert-butyl-4-hydroxyphenol)naphthalene-2-7-diol] | 
18 | 16 µM (≈ 6.84 µg/mL) | 4 µM (≈ 1.71 µg/mL) | 8 µM (≈ 3.42 µg/mL) | CC(C)(C)c1cc(-c2c(O)ccc3cc(Br)ccc23)cc(C(C)(C)C)c1O [Compound B5, 6-Bromo-1-(3,5-di-tert-butyl-4-hydroxyphenyl)naphthalen-2-ol] | bacteriostatic or bactericidal properties (regrow analysis, MIC vs MBC) (S. mutans): bacteriostatic; MBC (S. mutans): 125 µM (≈ 53.4 µg/mL)
19 | > 250 µM | > 250 µM | > 250 µM | CC(C)c1cc(-c2c(O)ccc3cc(Br)ccc23)cc(C(C)C)c1O [Compound B6, 6-Bromo-1-(4-hydroxy-3,5-diisopropylphenyl)naphthalen-2-ol] | 
20 | 125 µM (≈ 45.3 µg/mL) | 63 µM (≈ 22.8 µg/mL) | 125 µM (≈ 45.3 µg/mL) | C=CCc1cc(-c2c(O)ccc3cc(OC)ccc23)cc(C(C)(C)C)c1O [Compound B7, 1-(3-Allyl-5-(tert-butyl)-4-hydroxyphenyl)-6-methoxynaphthalen-2-ol] | 
21 | 16 µM (≈ 6.58 µg/mL) | 8 µM (≈ 3.29 µg/mL) | 16 µM (≈ 6.58 µg/mL) | C=CCc1cc(-c2c(O)ccc3cc(Br)ccc23)cc(C(C)(C)C)c1O [Compound B8, 1-(3-Allyl-5-(tert-butyl)-4-hydroxyphenyl)-6-bromonaphthalen-2-ol] | bacteriostatic or bactericidal properties (regrow analysis, MIC vs MBC) (S. mutans): bactericidal; MBC (S. mutans): 32 µM (≈ 13.2 µg/mL)
22 | 250 µM (≈ 103 µg/mL) | 250 µM (≈ 103 µg/mL) | > 250 µM | CCCc1cc(-c2c(O)ccc3cc(Br)ccc23)cc(C(C)(C)C)c1O [Compound B12, 6-Bromo-1-(3-(tert-butyl)-4-hydroxy-5-propylphenyl)naphthalen-2-ol] | 
23 | > 250 µM | > 250 µM | > 250 µM | CC(C)c1cc(-c2c(O)ccc3cc(-n4cccn4)ccc23)cc(C(C)C)c1O [Compound B13, 1-(4-Hydroxy-3,5-diisopropylphenyl)-6-(1H-pyrazol-1-yl)naphthalen-2-ol] | 
24 | 32 µM (≈ 17.2 µg/mL) | 16 µM (≈ 8.59 µg/mL) | 63 µM (≈ 33.8 µg/mL) | C=CCc1cc(-c2c(O)ccc3c(-c4cc(CC=C)c(O)c(C(C)(C)C)c4)c(O)ccc23)cc(C(C)(C)C)c1O [Compound B14, 1,5-Bis(3-allyl-5-(tert-butyl)-4-hydroxyphenyl)naphthalene-2,6-diol] | 
